Values of other authors in US20080096915A1, “COMPOSITIONS FOR THE TREATMENT OF METABOLIC DISORDERS” (Greenberg Traurig LLP, priority 2005, published 2008).
Each block holds one molecule with its values, some of them ahead of it.

How the values were obtained:
hypertensives = system: hypertensives; design: dose or concentration left out as unconfirmed; settings: 1050 hypertensives, for three months, dose doubled in one third; decreased from 176/104
[1] = system: patients whose blood pressure had not been normalized; settings: cicletanine 50 and 100 mg per day added to calcium channel blockers, beta blockers or ACE inhibitors
patients = settings: 150-200 mg/day cicletanine, over 12 months; fell from 128
[2] = system: Dahl salt-sensitive rats with salt-induced hypertension
sulfonylurea receptor = sulfonylurea receptor (Homo sapiens, UniProt Q09428)
[3] = in vivo

sulfonylurea receptor, sequence (Q09428 whole entry): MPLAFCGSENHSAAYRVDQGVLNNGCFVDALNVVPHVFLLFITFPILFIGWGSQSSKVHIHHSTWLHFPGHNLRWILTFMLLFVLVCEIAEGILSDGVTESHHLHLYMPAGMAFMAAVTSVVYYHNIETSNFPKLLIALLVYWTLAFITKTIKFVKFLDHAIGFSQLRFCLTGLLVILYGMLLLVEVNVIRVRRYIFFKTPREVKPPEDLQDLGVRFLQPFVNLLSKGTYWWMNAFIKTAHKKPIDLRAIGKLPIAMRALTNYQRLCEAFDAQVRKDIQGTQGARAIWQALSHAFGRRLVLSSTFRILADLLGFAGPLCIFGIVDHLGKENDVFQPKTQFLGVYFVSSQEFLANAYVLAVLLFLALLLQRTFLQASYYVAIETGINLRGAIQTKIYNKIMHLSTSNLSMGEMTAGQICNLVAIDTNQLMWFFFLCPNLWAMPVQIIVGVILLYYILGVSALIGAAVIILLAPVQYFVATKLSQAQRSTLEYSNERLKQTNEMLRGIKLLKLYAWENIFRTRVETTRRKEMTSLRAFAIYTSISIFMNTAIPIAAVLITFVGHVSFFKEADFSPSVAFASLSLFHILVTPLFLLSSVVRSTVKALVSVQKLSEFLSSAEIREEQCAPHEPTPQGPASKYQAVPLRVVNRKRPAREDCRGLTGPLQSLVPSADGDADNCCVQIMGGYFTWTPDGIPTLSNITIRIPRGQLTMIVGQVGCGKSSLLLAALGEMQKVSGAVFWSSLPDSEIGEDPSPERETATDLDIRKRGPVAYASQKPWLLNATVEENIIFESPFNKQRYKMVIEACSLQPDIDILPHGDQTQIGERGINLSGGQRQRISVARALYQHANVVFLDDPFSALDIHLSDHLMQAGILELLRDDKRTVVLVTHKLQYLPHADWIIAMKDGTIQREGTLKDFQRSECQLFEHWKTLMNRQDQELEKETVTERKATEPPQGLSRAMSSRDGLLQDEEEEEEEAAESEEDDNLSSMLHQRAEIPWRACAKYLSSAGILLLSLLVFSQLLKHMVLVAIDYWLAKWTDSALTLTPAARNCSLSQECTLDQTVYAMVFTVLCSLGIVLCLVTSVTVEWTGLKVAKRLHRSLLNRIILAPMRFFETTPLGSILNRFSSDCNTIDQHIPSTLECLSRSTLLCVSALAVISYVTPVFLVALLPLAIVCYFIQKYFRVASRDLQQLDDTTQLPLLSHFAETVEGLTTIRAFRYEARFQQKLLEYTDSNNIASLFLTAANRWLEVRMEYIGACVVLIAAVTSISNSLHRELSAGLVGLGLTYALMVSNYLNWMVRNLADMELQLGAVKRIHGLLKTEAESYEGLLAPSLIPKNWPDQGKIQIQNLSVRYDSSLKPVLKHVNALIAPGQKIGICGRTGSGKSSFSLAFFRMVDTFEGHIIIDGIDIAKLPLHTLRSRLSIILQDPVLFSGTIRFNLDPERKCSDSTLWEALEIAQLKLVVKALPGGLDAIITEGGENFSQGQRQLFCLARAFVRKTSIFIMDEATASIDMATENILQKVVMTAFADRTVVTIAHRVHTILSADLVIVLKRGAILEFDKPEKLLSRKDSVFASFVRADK
sulfonylurea receptor, sequence (Q14654 whole entry partner): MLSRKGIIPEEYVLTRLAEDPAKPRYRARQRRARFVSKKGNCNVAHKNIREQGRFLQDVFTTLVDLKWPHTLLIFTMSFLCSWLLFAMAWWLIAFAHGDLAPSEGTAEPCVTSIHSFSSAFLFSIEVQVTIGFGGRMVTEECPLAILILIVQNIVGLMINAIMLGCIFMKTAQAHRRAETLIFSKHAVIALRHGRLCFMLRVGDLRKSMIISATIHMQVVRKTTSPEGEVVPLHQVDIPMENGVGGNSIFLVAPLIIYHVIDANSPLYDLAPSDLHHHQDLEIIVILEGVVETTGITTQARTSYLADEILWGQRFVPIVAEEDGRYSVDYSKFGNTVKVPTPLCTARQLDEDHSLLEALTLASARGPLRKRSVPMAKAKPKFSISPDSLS

Structure (SMILES): Cc1ncc2c(c1O)COC2c1ccc(Cl)cc1 (racemic) [cicletanine, +−3-(4-chlorophenyl)-1,3-dihydro-6-methylfuro-[3,4-c]pyridin-7-ol]
blood pressure after treatment (hypertensives): 151/86
patients whose blood pressure was normalized [1]: 50 % of patients
peak insulin response to tolbutamide, following cicletanine administration (healthy subjects; 10 healthy subjects, single intravenous tolbutamide after 7 days of cicletanine 100 mg per day): 17.4 mU/L
hypoglycemic effect of tolbutamide following cicletanine administration (healthy subjects; after 7 days of cicletanine 100 mg per day): did not change
average triglyceride level after treatment (patients): 104 mg/dL
high-density lipoprotein (HDL) cholesterol [2]: increased
low-density lipoprotein (LDL) cholesterol [2]: significantly decreased

concentration range that saturates receptors (sulfonylurea receptor): low nanomolar
Structure (SMILES): Cc1cnc(C(=O)NCCc2ccc(S(=O)(=O)NC(=O)NC3CCCCC3)cc2)cn1 [glipizide]

plasma half-life [3]: 4 to 11 h
Structure (SMILES): COc1ccc(Cl)cc1C(=O)NCCc1ccc(S(=O)(=O)NC(=O)NC2CCCCC2)cc1 [glyburide]

Structure (SMILES): CCCCNC(=O)NS(=O)(=O)c1ccc(C)cc1 [tolbutamide]
peak insulin response to tolbutamide, before cicletanine administration (healthy subjects; 10 healthy subjects, single intravenous dose of tolbutamide alone): 29.2 mU/L
